The source of these data is ChEMBL document CHEMBL4152367, “Discovery of a Potent Thiazolidine Free Fatty Acid Receptor 2 Agonist with Favorable Pharmacokinetic Properties” (J Med Chem, 2018).

Activity calls are given as the source filed them. The calls are words filed in the database; no cut-off is given here.

Data set [1] addresses T1, Free fatty acid receptor 2 (Homo sapiens) (UniProt O15552).
T1 sequence (whole entry): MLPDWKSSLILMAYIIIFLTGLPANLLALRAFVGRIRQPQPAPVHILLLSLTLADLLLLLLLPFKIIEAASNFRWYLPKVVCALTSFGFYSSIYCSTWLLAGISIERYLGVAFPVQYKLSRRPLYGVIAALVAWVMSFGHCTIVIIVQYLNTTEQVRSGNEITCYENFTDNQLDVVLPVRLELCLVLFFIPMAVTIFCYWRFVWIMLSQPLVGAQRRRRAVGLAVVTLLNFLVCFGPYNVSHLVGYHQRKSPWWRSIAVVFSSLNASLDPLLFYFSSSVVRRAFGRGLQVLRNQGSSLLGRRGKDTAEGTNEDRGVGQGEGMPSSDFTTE
In words: Agonist activity at human FFA2R expressed in Flp-InT-REx 293 cells assessed as reduction of forskolin-induced cAMP production up to 30 uM after 30 mins by TR-FRET assay relative to control. The data set is classed as functional, cell-based.

The nature of data set [2]: Half life in Balb/c mouse at 5 mg/kg, ip by HPLC-MS/MS analysis. The data set is classed as ADME, organism-based. To be noted: in vivo.
A short description of data set [3]: AUC (0 to infinity) in Balb/c mouse at 5 mg/kg, ip by HPLC-MS/MS analysis. The data set is classed as ADME, organism-based. More on the design: dose 5 mg/kg, time infinity, route intraperitoneal. Conditions: in vivo.
The target in data set [4] is T1, Free fatty acid receptor 2 (Homo sapiens). In words: Agonist activity to human FFA2R expressed in HEK293T cells assessed as induction beta-arrestin-2 recruitment at 100 uM after 10 mins by BRET assay relative to control. The data set is classed as functional, cell-based. (Arrestin recruitment assays detect the binding of arrestin to an activated receptor.)
Data set [5] shares this target. The experiment in a line: Agonist activity to human FFA2R expressed in HEK293T cells assessed as induction beta-arrestin-2 recruitment up to 30 uM after 10 mins by BRET assay relative control. The data set is classed as functional, cell-based.
The target of data set [6] is T2, Free fatty acid receptor 2 (Mus musculus, UniProt Q8VCK6).
T2 sequence (Q8VCK6 whole entry): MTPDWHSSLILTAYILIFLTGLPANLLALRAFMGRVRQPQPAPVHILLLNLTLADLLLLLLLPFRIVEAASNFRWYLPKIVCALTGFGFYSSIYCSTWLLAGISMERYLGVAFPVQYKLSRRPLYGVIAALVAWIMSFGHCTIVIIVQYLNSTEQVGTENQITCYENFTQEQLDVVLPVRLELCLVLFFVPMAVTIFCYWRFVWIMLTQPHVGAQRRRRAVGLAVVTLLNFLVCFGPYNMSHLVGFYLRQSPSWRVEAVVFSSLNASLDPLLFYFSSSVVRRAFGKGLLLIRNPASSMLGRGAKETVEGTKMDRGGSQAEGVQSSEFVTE
In words: Agonist activity at FFA2R in mouse mature adipocytes assessed as inhibition of isoproterenol-induced glycerol production.

As to `Cc1noc(C)c1-c1ccc(C(=O)N2[C@@H](c3ccccn3)SC[C@H]2C(=O)O)cc1`, the result in data set [1] was inactive.

As to `COc1ccccc1-c1ccc(C(=O)N2[C@@H](c3ccccc3Cl)CC[C@H]2C(=O)O)cc1`, the half-life (as a rule, the time in which the quantity being followed falls by half) in data set [2] is 50 min. Further, the AUC(0-inf) – broadly, the area under the concentration-time curve extrapolated to infinity – in data set [3] is 417 ng·h/mL.

Take `COc1ccccc1-c1ccc(C(=O)N2[C@H](C(=O)O)CS[C@@H]2C(C)(C)C)cc1`: the Activity in data set [4] turned out to be 50%. Also, the outcome in data set [1] was inactive.

In the case of `COc1ccccc1-c1ccc(C(=O)N2[C@H](C(=O)O)CO[C@@H]2C(C)(C)C)cc1`, the result in data set [5] and in data set [1] was inactive.

For the compound `O=C(O)[C@@H]1CS[C@H](c2ccccc2Cl)N1C(=O)c1ccccc1`, the result in data set [5] and in data set [1] was inactive.

On to `CCC(=O)O` [PROPIONIC ACID], for which the EC50 (in general, the concentration giving half of the maximal effect) in data set [6] is 251 µM.
